Test system: neuropathic mechanical hyperalgesia after partial sciatic nerve ligation
Assay: Seltzer model (partial sciatic nerve ligation) of neuropathic pain, paw withdrawal threshold
Type: in vivo, rat
Conditions: for % Reversal [mean ± SEM]: rat
Description: In the Seltzer model, the partial sciatic nerve ligation model of neuropathic pain was used to produce neuropathic hyperalgesia in rats (Seltzer et al., “A Novel Behavioral Model of Neuropathic Pain Disorders Produced in Rats by Partial Sciatic Nerve Injury,” Pain 43:205-218 (1990)). Partial ligation of the left sciatic nerve was performed under isoflurane/O2 inhalation anaesthesia. Following induction of anesthesia, the left thigh of the male, 6-7 week old Jcl:SD rat was shaved. The sciatic nerve was exposed at high thigh level through a small incision and was carefully cleared of surrounding connective tissues at a site near the trocanther just distal to the point at which the posterior biceps semitendinosus nerve branches off of the common sciatic nerve. A 7-0 silk suture was inserted into the nerve with a ⅜ curved, reversed-cutting mini-needle and tightly ligated so that the dorsal ⅓ to ½ of the nerve thickness was held within the ligature. The wound was closed with a single muscle suture (4-0 nylon (Vicryl)) and vetbond tissue glue. The wound area was then dusted with antibiotic powder. Sham treatment involved an identical surgical procedure except that the sciatic nerve was not manipulated or ligated.
Following surgery, animals were weighed and placed on a warm pad until they recovered from anesthesia. Animals were then returned to their home cages until behavioral testing began. The animal was assessed for response to noxious mechanical stimuli by determining PWT for the rear paw of the animal, as described below, prior to surgery (baseline), then immediately prior to and 1, 3, 5, 7, and 24 hours after oral drug-in-vehicle administration (for day 1). Thus, the 24 hour time point was the start of the next day when drug-in-vehicle was again orally administered (24 hours after the prior administration). On days 2 and 3, PWT response was determined 1, 3, and 24 hours thereafter. Percentage reversal of neuropathic hyperalgesia at each of the specified times after administration was defined as: […]
Additionally, 10 mg/kg of pregabalin (Kemprotec, Ltd., Middlesbrough, UK), an anticonvulsant accepted for relief of particular neuropathic pain, in vehicle and the vehicle alone (0.5% weight/volume methylcellulose (400cP, Wako Pure Chemical Industries, Ltd.)/aqueous solution) were orally administered as controls. […] Ten rats that underwent partial ligation of the left sciatic nerve were used for each treatment group. Dunnett's test was conducted for the % reversal; values with p<0.05 were considered to be statistically significant.
Additionally, as a control the rats underwent sham surgery in which an identical surgical procedure was followed with regard to the right thigh but the sciatic nerve was neither manipulated nor ligated.
Response to Mechanical Stimuli as an Assessment of Mechanical Hyperalgesia: The paw pressure assay was used to assess mechanical hyperalgesia. […] Biochem. and Behavior 31:451-455 (1988). The maximum weight that could be applied to the hind paw was set at 250 g and the end point was taken as complete withdrawal of the paw. PWT was determined once for each rat at each time point and either only the affected (ipsilateral) paw was tested, or both the ipsilateral and contralateral (non-injured) paw were tested.

**Q.** For CC(C)C[C@H](CN)CC(=O)O [pregabalin, reference compound], which “maximum analgesic efficacy relative to the Example 10 product at 10 mg/kg” value (24.73% reversal (10 mg/kg, 3 h, day 1) as share of the 34.17% reversal of the product at 10 mg/kg) is on record?
**A.** about 72%

**Q.** What about the “% Reversal [mean ± SEM]” value (pregabalin control 10 mg/kg oral once daily, 1 hours (day 2) after administration) of the same compound?
**A.** 16.74 ± 4.23 %

**Q.** What about the “% Reversal [mean ± SEM]” value (pregabalin control 10 mg/kg oral once daily, 1 hours (day 3) after administration) of the same compound?
**A.** 17.16 ± 6.64 %

**Q.** What about the “% Reversal [mean ± SEM]” value (pregabalin control 10 mg/kg oral once daily, 3 hours (day 2) after administration) of the same compound?
**A.** 23.21 ± 2.30 %

**Q.** What about the “% Reversal [mean ± SEM]” value (pregabalin control 10 mg/kg oral once daily, 3 hours (day 3) after administration) of the same compound?
**A.** 26.56 ± 4.95 %

**Q.** And the “% Reversal [mean ± SEM]” value (pregabalin control 10 mg/kg oral once daily, 24 hours (0 hrs day 2) after administration)?
**A.** −2.84 ± 4.74%

**Q.** And the “% Reversal [mean ± SEM]” value (pregabalin control 10 mg/kg oral once daily, 24 hours (0 hrs day 3) after administration)?
**A.** 1.70 ± 4.29%

**Q.** What about the “% Reversal [mean ± SEM]” value (pregabalin control 10 mg/kg oral once daily, 24 hours (0 hrs day 4) after administration) of the same compound?
**A.** −3.67 ± 2.66%

**Q.** What about the “% Reversal [mean ± SEM]” value (pregabalin control 10 mg/kg oral, 1 hours (day 1) after administration) of the same compound?
**A.** 24.05 ± 6.46 %

**Q.** What about the “% Reversal [mean ± SEM]” value (pregabalin control 10 mg/kg oral, 3 hours (day 1) after administration) of the same compound?
**A.** 24.73 ± 4.12 %

**Q.** And the “% Reversal [mean ± SEM]” value (pregabalin control 10 mg/kg oral, 5 hours (day 1) after administration)?
**A.** 19.97 ± 4.79 %

**Q.** What about the “% Reversal [mean ± SEM]” value (pregabalin control 10 mg/kg oral, 7 hours (day 1) after administration) of the same compound?
**A.** 11.89 ± 3.16 %

**Q.** What about the “% reversal of neuropathic hyperalgesia” value (rat Seltzer model, oral 10 mg/kg, 3 h after day 1 administration (maximum)) of the same compound?
**A.** 24.73%
